In patent US20020086278A1, “CHROMOGENIC MEDIA CONTAINING BLOOD OR HEMIN” (priority 1999, published 2002):

Tests used:
[1] = test system: Streptococcus agalactiae (stag); assay: Example 3: colony color on chromogenic TSA II with 5% sheep blood (chromogen in medium); format: cell-based; settings: stag 4768; air; 21 h
[2] = test system: Staphylococcus aureus (stau); assay: as above; format: cell-based
[3] = test system: Staphylococcus Coag Neg (step); assay: as above; format: cell-based; settings: for Colony Color on Various Chromogenic TSA II with 5% Sheep Blood: 18 h; for Colony Color: 21 h
S. milleri (stmi) = assay: as above; format: cell-based; settings: for Colony Color: stmi 6249, 21 h
S. pneumoniae (stpn) = assay: as above; format: cell-based; settings: for Colony Color on Various Chromogenic TSA II with 5% Sheep Blood: 18 h
S pyogenes (stpy) = assay: as above; format: cell-based; settings: for Colony Color on Various Chromogenic TSA II with 5% Sheep Blood: 18 h
[4] = Precipitate of chromogen on pre-plated media; format: physicochemical; settings: After 1 week
Experimental: 50 μl of each chromogen solution was added to the surface of each of the following pre-plated media (one chromogen solution per plate):
The solution was dispersed using a spreader and allowed to dry 3-4 hours in a hood.

milu 9341 = assay: Example 3: colony color on chromogenic TSA II with 5% sheep blood (chromogen in medium); format: cell-based
[5] = chromogenic TSA II with 5% Sheep Blood, 0.1 g/l, 5 strains tested

OC[C@H]1O[C@@H](Oc2c[nH]c3ccc(Br)c(Cl)c23)[C@H](O)[C@@H](O)[C@@H]1O [X-Glucoside, 5-Br-4-Cl-3-indolyl-β-D-glucopyranoside]
bg: Colony Color on Various Chromogenic TSA II with 5% Sheep Blood (S. pneumoniae (stpn); stpn t628, CO2)
0: Colony Color (Summary) [2, 5] | Colony Color ([2]; stau 1006, CO2, 21 h) | Colony Color ([2]; stau 1007, CO2, 21 h) | Colony Color ([2]; stau 1008, CO2, 21 h) | Colony Color ([2]; stau 1009, CO2, 21 h) | Colony Color ([2]; stau 25923, CO2, 18 h) | Colony Color ([2]; stau 25923, CO2, 24 h) | Colony Color ([2]; stau 25923, air, 24 h) | Colony Color on Various Chromogenic TSA II with 5% Sheep Blood ([2]; stau t006, CO2, 18 h) | Colony Color on Various Chromogenic TSA II with 5% Sheep Blood ([2]; stau t007, CO2, 18 h) | Colony Color on Various Chromogenic TSA II with 5% Sheep Blood ([2]; stau t008, CO2, 18 h) | Colony Color on Various Chromogenic TSA II with 5% Sheep Blood ([2]; stau t009, CO2, 18 h) | Colony Color (Summary) [3, 5] | Colony Color on Various Chromogenic TSA II with 5% Sheep Blood ([3]; step 12228, CO2) | Colony Color ([3]; step 12228, CO2) | Colony Color ([3]; step 12228, air) | Colony Color on Various Chromogenic TSA II with 5% Sheep Blood ([3]; step cdc1, CO2) | Colony Color ([3]; step cdc1, CO2) | Colony Color ([3]; step cdc1, air) | Colony Color ([3]; step cdc2, CO2) | Colony Color ([3]; step cdc2, air) | Colony Color ([3]; step cdc3, CO2) | Colony Color ([3]; step cdc3, air) | Colony Color on Various Chromogenic TSA II with 5% Sheep Blood ([3]; step cdc4, CO2) | Colony Color ([3]; step cdc4, CO2) | Colony Color ([3]; step cdc4, air) | Colony Color on Various Chromogenic TSA II with 5% Sheep Blood ([3]; stha cdc2, CO2) | Colony Color on Various Chromogenic TSA II with 5% Sheep Blood ([3]; stsa cdc3, CO2) | Colony Color (Summary) (S. milleri (stmi); chromogenic TSA II with 5% Sheep Blood, 0.1 g/l, 2 strains tested) | Colony Color on Various Chromogenic TSA II with 5% Sheep Blood (S. milleri (stmi); stmi 6242, CO2, 18 h) | Colony Color (S. milleri (stmi); CO2) | Colony Color (S. milleri (stmi); air) | Colony Color (S. pneumoniae (stpn); stpn 1259, CO2, 21 h) | Colony Color (S. pneumoniae (stpn); stpn 1260, CO2, 21 h) | Colony Color (S. pneumoniae (stpn); stpn 1628, CO2, 21 h) | Colony Color (S. pneumoniae (stpn); stpn 6303, CO2, 24 h) | Colony Color (S. pneumoniae (stpn); stpn 6303, air, 24 h) | Colony Color (S. pneumoniae (stpn); stpn 6305, CO2, 24 h) | Colony Color (S. pneumoniae (stpn); stpn 6305, air, 24 h) | Colony Color on Various Chromogenic TSA II with 5% Sheep Blood (S. pneumoniae (stpn); stpn t259, CO2) | Colony Color on Various Chromogenic TSA II with 5% Sheep Blood (S. pneumoniae (stpn); stpn t260, CO2) | Colony Color on Various Chromogenic TSA II with 5% Sheep Blood (S. pneumoniae (stpn); stpn t331, CO2) | Colony Color (S pyogenes (stpy); stpy 1027, CO2, 21 h) | Colony Color (S pyogenes (stpy); stpy 49117, CO2, 21 h) | Colony Color (S pyogenes (stpy); stpy 49117, air, 21 h) | Colony Color on Various Chromogenic TSA II with 5% Sheep Blood (S pyogenes (stpy); stpy 51339, CO2) | Colony Color (S pyogenes (stpy); stpy 51339, CO2, 21 h) | Colony Color on Various Chromogenic TSA II with 5% Sheep Blood (S pyogenes (stpy); stpy t027, CO2) | Colony Color on Various Chromogenic TSA II with 5% Sheep Blood (S pyogenes (stpy); stpy t028, CO2) | Colony Color on Various Chromogenic TSA II with 5% Sheep Blood (S pyogenes (stpy); stpy t029, CO2) | Colony Color (milu 9341; CO2, 21 h)
some precipitate was evident: Precipitate on plates after 1 week [4]
light grey blue: Colony Color (S pyogenes (stpy); 4 of 7 S. pyogenes, X-glucoside TSA II)
lb: Colony Color [1]
ly: Colony Color (milu 9341; CO2, 18 h)
gb: Colony Color (S pyogenes (stpy); stpy 1030, CO2, 21 h) | Colony Color (S pyogenes (stpy); stpy 19615, CO2, 21 h)
lgb: Colony Color (S pyogenes (stpy); stpy 1028, CO2, 21 h) | Colony Color (S pyogenes (stpy); stpy 1029, CO2, 21 h) | Colony Color (S pyogenes (stpy); stpy 19615, air, 21 h) | Colony Color (S pyogenes (stpy); stpy 51339, air, 21 h) | Colony Color on Various Chromogenic TSA II with 5% Sheep Blood (S pyogenes (stpy); stpy t030, CO2)
